In the supplement of paper PMC10307832:

How the values were obtained:
Test in all cases: relative viability (nuclei count vs DMSO), 5 days (fraction); higher = more cells survive
Palbociclib + Navitoclax = compound: CC(=O)c1c(C)c2cnc(Nc3ccc(N4CCNCC4)cn3)nc2n(C2CCCC2)c1=O [Palbociclib] + CC1(C)CCC(c2ccc(Cl)cc2)=C(CN2CCN(c3ccc(C(=O)NS(=O)(=O)c4ccc(N[C@H](CCN5CCOCC5)CSc5ccccc5)c(S(=O)(=O)C(F)(F)F)c4)cc3)CC2)C1 [Navitoclax] (partner 0.5 µM)
How it was run: (§1)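 Relative viability equals treated-well nuclei counts divided by vehicle-well nuclei counts. Counts came from 4× images of lung cancer cell lines grown in 1536-well plates for 5 days after pin-tool dosing on the day after seeding. Dosing used one drug alone or a fixed anchor-drug dose plus five library-drug doses (not always all listed) in √10 steps, and values are medians of duplicate plates.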

Palbociclib + Tozasertib = compound: CC(=O)c1c(C)c2cnc(Nc3ccc(N4CCNCC4)cn3)nc2n(C2CCCC2)c1=O [Palbociclib] + Cc1cc(Nc2cc(N3CCN(C)CC3)nc(Sc3ccc(NC(=O)C4CC4)cc3)n2)n[nH]1 [Tozasertib] (partner 0.1 µM)
How it was run: as §1

Palbociclib + Phenformin = compound: CC(=O)c1c(C)c2cnc(Nc3ccc(N4CCNCC4)cn3)nc2n(C2CCCC2)c1=O [Palbociclib] + N=C(N)NC(=N)NCCc1ccccc1 [Phenformin] (partner 250 µM)
How it was run: as §1

Palbociclib + AZD7762 = compound: CC(=O)c1c(C)c2cnc(Nc3ccc(N4CCNCC4)cn3)nc2n(C2CCCC2)c1=O [Palbociclib] + NC(=O)Nc1cc(-c2cccc(F)c2)sc1C(=O)N[C@H]1CCCNC1 [AZD7762] (partner 0.2 µM)
How it was run: as §1

Row | Cell Line | relative viability (Palbociclib + Navitoclax; first compound 0.01 µM) | relative viability (Palbociclib + Navitoclax; first compound 0.03162 µM) | relative viability (Palbociclib + Navitoclax; first compound 0.1 µM) | relative viability (Palbociclib + Navitoclax; first compound 0.3162 µM) | relative viability (Palbociclib + Navitoclax; first compound 1 µM) | relative viability (Palbociclib + Tozasertib; first compound 0.01 µM) | relative viability (Palbociclib + Tozasertib; first compound 0.1 µM) | relative viability (Palbociclib + Tozasertib; first compound 0.3162 µM) | relative viability (Palbociclib + Tozasertib; first compound 1 µM) | relative viability (Palbociclib + Phenformin; first compound 0.01 µM) | relative viability (Palbociclib + Phenformin; first compound 0.1 µM) | relative viability (Palbociclib + Phenformin; first compound 0.3162 µM) | relative viability (Palbociclib + Phenformin; first compound 1 µM) | relative viability (Palbociclib + AZD7762; first compound 0.01 µM) | relative viability (Palbociclib + AZD7762; first compound 0.03162 µM) | relative viability (Palbociclib + AZD7762; first compound 0.1 µM) | relative viability (Palbociclib + AZD7762; first compound 0.3162 µM) | relative viability (Palbociclib + AZD7762; first compound 1 µM) | relative viability (Palbociclib + Tozasertib; first compound 0.03162 µM) | relative viability (Palbociclib + Phenformin; first compound 0.03162 µM)
1 | NCI-H596 | 0.99 | 0.945 | 0.976 | 0.949 | 1.1 | 0.951 | 1 | 0.935 | 0.965 | 0.982 | 0.757 | 0.712 | 0.673 | 1.15 | 0.96 | 1.1 | 1.01 | 1.09 |  | 
2 | LXF-289 | 0.94 | 0.94 | 0.937 | 0.83 | 0.772 | 0.175 | 0.19 | 0.233 | 0.248 | 0.51 | 0.452 | 0.462 | 0.378 | 1.03 | 0.692 | 1.06 | 0.96 | 0.779 | 0.2 | 0.294
3 | NCI-H1975 | 1.2 | 1.02 | 1.08 | 0.918 | 0.877 | 0.733 | 0.577 | 0.694 | 0.592 | 0.388 | 0.325 | 0.273 | 0.3 | 0.715 | 0.772 | 0.609 | 0.659 | 0.531 | 0.664 | 0.384
4 | NCI-H1355 | 0.943 |  | 0.772 | 0.755 | 0.597 | 0.613 | 0.583 | 0.556 | 0.454 | 0.511 | 0.387 | 0.385 | 0.26 | 0.672 | 0.572 | 0.733 | 0.697 | 0.571 | 0.521 | 0.39
5 | NCI-H1993 | 0.84 | 0.875 | 0.752 | 0.771 | 0.706 | 0.612 | 0.575 | 0.507 | 0.509 | 0.467 | 0.464 | 0.445 | 0.556 | 0.748 | 0.646 | 0.575 | 0.632 | 0.528 | 0.572 | 0.474
6 | NCI-H441 |  | 0.593 | 0.336 | 0.484 | 0.572 | 0.689 | 0.577 | 0.446 | 0.373 | 0.896 | 0.623 | 0.57 | 0.35 | 1.04 | 0.844 | 0.896 | 0.743 | 0.598 | 0.739 | 0.627
7 | BEN | 0.0758 | 0.0563 | 0.0761 | 0.0645 | 0.0615 | 0.563 | 0.541 | 0.608 | 0.697 | 0.285 | 0.237 | 0.249 | 0.257 | 0.826 | 0.604 | 0.583 | 0.567 | 0.388 | 0.429 | 0.243
8 | NCI-H2170 | 0.624 | 0.552 | 0.74 | 0.578 | 0.549 | 0.697 | 0.737 | 0.77 | 0.655 | 0.418 | 0.351 | 0.34 | 0.304 | 0.925 | 0.736 | 0.875 | 0.773 | 0.514 | 0.75 | 0.352
